The values that follow come from US11738031B2, “Compositions and methods for preventing or treating muscle conditions” (The Board of Trustees of the Leland Stanford Junior …, priority 2017, dated 2023).

For the experiment, the system named is muscle stem cells (MuSCs). Kind of experiment: MuSC proliferation in culture, cell number count (hemocytometer). In kind it is cell-based, mouse. As to the method: Muscle stem cell culture, treatment and lentiviral infection: Following isolation, we resuspended MuSCs in myogenic cell culture medium containing DMEM/F10 (50:50), 15% FBS, 2.5 ng ml^−1 fibroblast growth factor-2 (FGF-2 also known as bFGF) and 1% penicillin-streptomycin. We seeded MuSC suspensions at a density of 500 cells per cm^2 surface area. We maintained cell cultures at 37° C. in 5% CO2 and changed medium daily. For PGE2, 15-PGDH inhibitor and EP4 receptor antagonist treatment studies, we added 1-200 ng/ml Prostaglandin E2 (Cayman Chemical) (unless specified in the figure legends, 10 ng/ml was the standard concentration used), and/or 1 μM EP4 antagonist (ONO-AE3-208, Cayman Chemical), or 1 μM 15-PGDH inhibitor (SW033291, Cayman Chemical) to the MuSCs cultured on collagen coated dishes for the first 24 h. The cells were then trypsinized and cells reseeded onto hydrogels for an additional 6 days of culture. All treatments were compared to their solvent (DMSO) vehicle control. For stripped serum assays, we resuspended isolated MuSCs in medium containing DMEM/F10 (50:50), 15% charcoal stripped FBS (Gibco, cat #12676011), 2.5 ng ml^−1 bFGF and 1% penicillin-streptomycin. […]
Proliferation assays: To assay proliferation, we used three different assays (hemocytometer, VisionBlue, and EdU). […] For hemocytometer cell number count, we collected cells at indicated timepoints by incubation with 0.5% trypsin in PBS for 5 min at 37° C. and quantified them using a hemocytometer at least 3 times. Additionally, we used the VisionBlue Quick Cell Viability Fluorometric Assay Kit (BioVision, catalog #K303) as a readout for cell growth in culture. Briefly, we incubated MuSCs with 10% VisionBlue in culture medium for 3 h, and measured fluorescence intensity on a fluorescence plate reader (Infinite M1000 PRO, Tecan) at Ex=530-570 nm, Em=590-620 nm. […] We quantified EdU positive cells using the MetaMorph Image Analysis software (Molecular Devices). Data analyses were blinded, where researchers performing cell scoring were unaware of the treatment condition given to sample groups analyzed. […]

“Also recorded” adds a separate entry of the source.

As for `CCCCC[C@H](O)/C=C/[C@H]1[C@H](O)CC(=O)[C@@H]1C/C=C\CCCC(=O)O` [PGE2, prostaglandin E2], for the setting “PGE2 10 ng/ml added to stripped serum medium, 7 days on hydrogels”, the “MuSC proliferation in medium with charcoal stripped serum” value is “divided upon addition of PGE2; also recorded: rescued this block in proliferation”. The “increase in the number of MuSCs relative to controls” value (PGE2 10 ng/ml, acute 1-day exposure, counted one week later, young MuSCs on hydrogel) stood at 6 fold.
